According to patent US20120270832A1, “KETONE ACCUMULATION INHIBITOR” (MITSUI SUGAR CO., LTD., priority 2008, published 2012):
“Also recorded” adds a separate entry of the source.

Key:
[1] = into 100 g water at 20° C.; cited from earlier work
[2] = Drinking test: test drink intake after one hour of exercising; type: in vivo, human; details: for blood free fatty acid levels changes over time: FIG. 4; for blood lactic acid levels changes over time: FIG. 5; for blood total ketone bodies levels changes over time: FIG. 13; for amount of oxidized carbohydrate changes over time / amount of oxidized lipids (fat) changes over time: calculated from VO2 and VCO2 by Frayn's equation; for amount of oxidized carbohydrate changes over time: FIG. 7; for amount of oxidized lipids (fat) changes over time: FIG. 8; for respiratory quotient changes over time: calculated from oxygen intake and carbon dioxide excretion, FIG. 6; for lipid oxidation, overall finding: recognized from FIGS. 4, 5, 7 and 8; for blood glucose levels (blood sugar level) changes over time: male subjects with suspected metabolic syndrome, drink in 500 ml water taken after 1 h exercise at about 50% VO2 max, blood sampled 10-120 min after intake, FIG. 1
Description: To male subjects with suspected metabolic syndrome and 85 cm or more of abdominal circumferences who lack in exercise, the following test was conducted. […] The subjects, who had family histories of cardiopathy or type 2 diabetes and/or had dyslipidemia, were eliminated from the test. Palatinose or high-fructose corn syrup was dissolved in 500 ml of water so that its intake per kg of body weight could be 1.0 g of the solid, and sucralose, a high intensity sweetener, was dissolved in 500 ml of water so that its intake per kg of body weight could be 1.33 mg of the solid that gives the degree of sweetness between the high-fructose corn syrup and palatinose solutions, to prepare three kinds of test drinks. For these three kinds of drinks, drinking tests were conducted, respectively and each test was conducted at intervals of ten days or longer. The high-fructose corn syrup is composed of glucose and fructose, the same constituent sugars as sucrose and palatinose, and its calorie per the solid is 4 kcal/g which is the same value as that of sucrose and palatinose.
The method of physical measurement for the subjects was based on ACSM guideline (American College of Sports Medicine, 2001). Respiratory gas was collected and analyzed by a respiratory gas automatic analyzer (Oxycon Alpha, manufactured by Mijnhardt) every 30 seconds during the test. Maximal oxygen uptake (VO2max) was calculated by increasing exercise loading gradually with a bicycle ergometer (818E, manufactured by Monark).
The tests were conducted as a double-blind crossover tests and dietary restriction was imposed on the subjects from two days before the tests. All subjects were instructed to abstain from alcohol, caffeine, green tea and high-intensity exercising 24 hours before the tests. Moreover, they recorded food intake two days before the first tests and repeated the same food intake before the second tests. This is for standardizing of the food intake before the tests and for minimizing the change of glycogen storage. All subjects took the same food as the dinner a day before all tests (725 kcal, 60% of the energy from carbohydrate, 30% from lipid and 10% from protein). After an overnight (10 hours to 12 hours) fast, the tests were conducted. During the fasting period, they were permitted to take water freely.
In order to avoid the effect of circadian rhythm, the tests were started at the same time. After the 15 minutes rest, the first venous blood sampling was conducted. The subjects exercised for an hour with loading of about 50% of VO2 max by a bicycle ergometer. After exercising, blood sampling was conducted and they took the test drinks for 5 minutes. Blood sampling was conducted at time points of 10, 20, 30, 45, 60, 75, 90, 105 and 120 minutes after the test drink was taken in. The collected blood samples were submitted for various biochemical measurements. After the drink intake, their heart rates were continuously measured with an electrocardiograph (Dyan Scope, manufactured by Fukuda Denshi).
On the assumption that oxidation of proteins during exercising can be ignored, oxidation of total carbohydrates and lipids was calculated from VO2 and VCO2 using Frayn's equation. The VO2 and VCO2 represent oxygen intake and carbon dioxide excretion in L/min, respectively. Respiratory quotient (RQ) was calculated from oxygen intake and carbon dioxide excretion. Calorie consumption rate was calculated from RQ and VO2 using Lusk's equation.

With `O.OC[C@H]1O[C@H](OC[C@H]2OC(O)(CO)[C@@H](O)[C@@H]2O)[C@H](O)[C@@H](O)[C@@H]1O` (stereo partly shown) [Palatinose monohydrate] as the molecule, how does the “solubility into 100 g water” value [1] read?
Its value is 38.4 g.

With `OC[C@H]1O[C@H](OC[C@H]2OC(O)(CO)[C@@H](O)[C@@H]2O)[C@H](O)[C@@H](O)[C@@H]1O` (stereo partly shown) [palatinose, isomaltulose] as the molecule, how does the “blood insulin levels changes over time (insulin secretion)” value ([2]; drink intake after exercising, FIG. 2) read?
The value was “mild”.

And the “blood free fatty acid levels changes over time” value ([2]; drink intake after exercising)?
Its value is “between those in taking high-fructose corn syrup and in taking sucralose”.

And the “blood lactic acid levels changes over time” value ([2]; drink intake after exercising)?
Its value is “between those in taking high-fructose corn syrup and in taking sucralose”.

What about the “blood neutral fat levels changes over time” value ([2]; drink intake after exercising, FIG. 9) of the same molecule?
The value was “no effect”.

And the “blood epinephrine levels changes over time” value ([2]; drink intake after exercising, FIG. 10)?
Its value is “no effect”.

And the “blood nolepinephrine levels changes over time” value ([2]; drink intake after exercising, FIG. 11)?
Its value is “no effect”.

What about the “blood total ketone bodies levels changes over time” value ([2]; drink intake after exercising) of the same molecule?
The value was “dropped without their accumulation in blood; also recorded: inhibit accumulation of ketone bodies”.

And the “amount of oxidized carbohydrate changes over time” value ([2]; drink intake after exercising)?
The value was “between those of high-fructose corn syrup and sucralose”.

What about the “amount of oxidized lipids (fat) changes over time” value ([2]; drink intake after exercising) of the same molecule?
Its value is “between those of high-fructose corn syrup and sucralose”.

What about the “respiratory quotient changes over time” value ([2]; drink intake after exercising) of the same molecule?
The value was “between those in taking high-fructose corn syrup and in taking sucralose”.

What about the “lipid oxidation, overall finding” value ([2]; drink intake after exercising) of the same molecule?
Its value is “rather difficult to prevent”.

What about the “blood glucose levels (blood sugar level) changes over time” value [2] of the same molecule?
Its value is “rose slowly thereafter, surpassed that in the case of taking high-fructose corn syrup around 60 minutes thereafter, and continued maintaining a relatively high value”.

With `OC[C@H]1O[C@H](O[C@]2(CCl)O[C@H](CCl)[C@@H](O)[C@@H]2O)[C@H](O)[C@@H](O)[C@H]1Cl` [sucralose, reference compound] as the molecule, how does the “blood free fatty acid levels changes over time” value ([2]; drink intake after exercising) read?
Its value is “the higher values were maintained”.

What about the “blood lactic acid levels changes over time” value ([2]; drink intake after exercising) of the same molecule?
Its value is “no change”.

What about the “blood 3-OHBA levels changes over time” value ([2]; drink intake after exercising, FIG. 12) of the same molecule?
The value was “rose”.

What about the “blood total ketone bodies levels changes over time” value ([2]; drink intake after exercising) of the same molecule?
The value was “rose”.

What about the “amount of oxidized carbohydrate changes over time” value ([2]; drink intake after exercising) of the same molecule?
The value was “lower values”.

What about the “amount of oxidized lipids (fat) changes over time” value ([2]; drink intake after exercising) of the same molecule?
The value was “higher values”.

What about the “respiratory quotient changes over time” value ([2]; drink intake after exercising) of the same molecule?
The value was about 0.7.

And the “lipid oxidation, overall finding” value ([2]; drink intake after exercising)?
Its value is “maintained”.

And the “blood glucose levels (blood sugar level) changes over time” value [2]?
Its value is “did not rise”.
